According to PubChem BioAssay AID2060902 (Molecular Pharmacology Branch, DTP, NCI, 2025):

Test system: 485368-065-R3-J5-PDC spheroids with HUVEC/MSC, viability
Assay: Anticancer human tumor 485368-065-R3-J5-PDC patient-derived pancreatic carcinoma cell line growth inhibition [RAS]
Conditions: for IC50: curve of first compound; for viability, T/C: stronger effect = lower value; active = viability on the fitted dose curve at most 10% of control; inactive = the rest
Method in brief: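 Tumour cells grown as complex spheroids with HUVEC endothelial cells and mesenchymal stem cells, treated with RAS pathway inhibitor combinations. Each agent spans half-log steps from near clinical Cmax, or 10 microM where Cmax is unknown.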

[1] = second compound 0.000949 µM, first compound 0.0316 µM
[2] = second compound 0.000949 µM, first compound 0.1 µM
[3] = second compound 0.000949 µM, first compound 0.316 µM
[4] = second compound 0.000949 µM, first compound 1 µM
[5] = second compound 0.000949 µM, first compound 3.16 µM
[6] = second compound 0.000949 µM, first compound 10 µM
[7] = second compound 0.003 µM, first compound 0.0316 µM
[8] = second compound 0.003 µM, first compound 0.1 µM
[9] = second compound 0.003 µM, first compound 0.316 µM
[10] = second compound 0.003 µM, first compound 1 µM
[11] = second compound 0.003 µM, first compound 3.16 µM
[12] = second compound 0.003 µM, first compound 10 µM
[13] = second compound 0.00949 µM, first compound 0.0316 µM
[14] = second compound 0.00949 µM, first compound 0.1 µM
[15] = second compound 0.00949 µM, first compound 0.316 µM
[16] = second compound 0.00949 µM, first compound 1 µM
[17] = second compound 0.00949 µM, first compound 3.16 µM
[18] = second compound 0.00949 µM, first compound 10 µM
[19] = second compound 0.03 µM, first compound 0.0316 µM
[20] = second compound 0.03 µM, first compound 0.1 µM
[21] = second compound 0.03 µM, first compound 0.316 µM
[22] = second compound 0.03 µM, first compound 1 µM
[23] = second compound 0.03 µM, first compound 3.16 µM
[24] = second compound 0.03 µM, first compound 10 µM
[25] = second compound 0.0949 µM, first compound 0.0316 µM
[26] = second compound 0.0949 µM, first compound 0.1 µM
[27] = second compound 0.0949 µM, first compound 0.316 µM
[28] = second compound 0.0949 µM, first compound 1 µM
[29] = second compound 0.0949 µM, first compound 3.16 µM
[30] = second compound 0.0949 µM, first compound 10 µM
[31] = second compound 0.3 µM, first compound 0.0316 µM
[32] = second compound 0.3 µM, first compound 0.1 µM
[33] = second compound 0.3 µM, first compound 0.316 µM
[34] = second compound 0.3 µM, first compound 1 µM
[35] = second compound 0.3 µM, first compound 3.16 µM
[36] = second compound 0.3 µM, first compound 10 µM
[37] = second compound 0.000949 µM, first compound 0.00316 µM
[38] = second compound 0.000949 µM, first compound 0.01 µM
[39] = second compound 0.003 µM, first compound 0.00316 µM
[40] = second compound 0.003 µM, first compound 0.01 µM
[41] = second compound 0.00949 µM, first compound 0.00316 µM
[42] = second compound 0.00949 µM, first compound 0.01 µM
[43] = second compound 0.03 µM, first compound 0.00316 µM
[44] = second compound 0.03 µM, first compound 0.01 µM
[45] = second compound 0.0949 µM, first compound 0.00316 µM
[46] = second compound 0.0949 µM, first compound 0.01 µM
[47] = second compound 0.3 µM, first compound 0.00316 µM
[48] = second compound 0.3 µM, first compound 0.01 µM
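Also: spheroids exposed to agents for seven days before readout.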

CC(C)NCC(C(=O)N1CCN(c2ncnc3c2C(C)CC3O)CC1)c1ccc(Cl)cc1 (stereo not drawn) + CCn1c(-c2cccnc2C(C)OC)c2c3cc(ccc31)N1CCOC(CC(NC(=O)C(C(C)C)N(C)C(=O)C3(F)CCN(C(=O)C#CC(C)(C)N(C)C)CC3)C(=O)N3CCCC(N3)C(=O)OCC(C)(C)C2)C1
inactive: viability, T/C [1] 102% | viability, T/C [2] 99.4% | viability, T/C [3] 95.9% | viability, T/C [4] 79.9% | viability, T/C [5] 74.6% | viability, T/C [6] 55.8% | viability, T/C [7] 88.7% | viability, T/C [8] 94% | viability, T/C [9] 93.8% | viability, T/C [10] 81.7% | viability, T/C [11] 81.4% | viability, T/C [12] 62.2% | viability, T/C [13] 95.7% | viability, T/C [14] 103% | viability, T/C [15] 97% | viability, T/C [16] 87.6% | viability, T/C [17] 76.8% | viability, T/C [18] 66.1% | viability, T/C [19] 89.1% | viability, T/C [20] 104% | viability, T/C [21] 88.4% | viability, T/C [22] 84.7% | viability, T/C [23] 70.2% | viability, T/C [24] 58.6% | viability, T/C [25] 99.9% | viability, T/C [26] 104% | viability, T/C [27] 89.5% | viability, T/C [28] 80.7% | viability, T/C [29] 69.8% | viability, T/C [30] 56.2% | viability, T/C [31] 98.7% | viability, T/C [32] 101% | viability, T/C [33] 90.7% | viability, T/C [34] 78.8% | viability, T/C [35] 70.3% | viability, T/C [36] 49.7%
> 10000 nM: IC50 (second compound 0.000949 µM) | IC50 (second compound 0.003 µM) | IC50 (second compound 0.00949 µM) | IC50 (second compound 0.03 µM) | IC50 (second compound 0.0949 µM) | IC50 (second compound 0.3 µM)

CC(C)n1nc(-c2ccc3oc(N)nc3c2)c2c(N)ncnc21 + CCn1c(-c2cccnc2C(C)OC)c2c3cc(ccc31)N1CCOC(CC(NC(=O)C(C(C)C)N(C)C(=O)C3(F)CCN(C(=O)C#CC(C)(C)N(C)C)CC3)C(=O)N3CCCC(N3)C(=O)OCC(C)(C)C2)C1
21.7 nM: IC50 (second compound 0.000949 µM) | IC50 (second compound 0.03 µM)
inactive: viability, T/C (second compound 0.000949 µM, first compound 0.000316 µM) 93.8% | viability, T/C (second compound 0.000949 µM, first compound 0.001 µM) 107% | viability, T/C [37] 84.2% | viability, T/C [38] 73.4% | viability, T/C [1] 38.8% | viability, T/C [2] 21.2% | viability, T/C (second compound 0.003 µM, first compound 0.000316 µM) 97.6% | viability, T/C (second compound 0.003 µM, first compound 0.001 µM) 97.3% | viability, T/C [39] 85.6% | viability, T/C [40] 66.8% | viability, T/C [7] 37.2% | viability, T/C [8] 19.4% | viability, T/C (second compound 0.00949 µM, first compound 0.000316 µM) 88.2% | viability, T/C (second compound 0.00949 µM, first compound 0.001 µM) 115% | viability, T/C [41] 85.9% | viability, T/C [42] 66.6% | viability, T/C [13] 40.2% | viability, T/C [14] 19.4% | viability, T/C (second compound 0.03 µM, first compound 0.000316 µM) 92% | viability, T/C (second compound 0.03 µM, first compound 0.001 µM) 96.3% | viability, T/C [43] 96.2% | viability, T/C [44] 78.1% | viability, T/C [19] 36.4% | viability, T/C [20] 22.1% | viability, T/C (second compound 0.0949 µM, first compound 0.000316 µM) 89.3% | viability, T/C (second compound 0.0949 µM, first compound 0.001 µM) 98.2% | viability, T/C [45] 96.6% | viability, T/C [46] 69.1% | viability, T/C [25] 40.3% | viability, T/C [26] 19.5% | viability, T/C (second compound 0.3 µM, first compound 0.000316 µM) 97.3% | viability, T/C (second compound 0.3 µM, first compound 0.001 µM) 99.4% | viability, T/C [47] 86.9% | viability, T/C [48] 75% | viability, T/C [31] 43.9% | viability, T/C [32] 22.4%
25.6 nM: IC50 (second compound 0.3 µM)
19.1 nM: IC50 (second compound 0.003 µM)
21.2 nM: IC50 (second compound 0.0949 µM)
19.9 nM: IC50 (second compound 0.00949 µM)

CC(Nc1ccc2c(c1)OCCn1cc(N3C(=O)OCC3C(F)F)nc1-2)C(N)=O (stereo not drawn) + CCn1c(-c2cccnc2C(C)OC)c2c3cc(ccc31)N1CCOC(CC(NC(=O)C(C(C)C)N(C)C(=O)C3(F)CCN(C(=O)C#CC(C)(C)N(C)C)CC3)C(=O)N3CCCC(N3)C(=O)OCC(C)(C)C2)C1
> 10000 nM: IC50 (second compound 0.000949 µM) | IC50 (second compound 0.003 µM) | IC50 (second compound 0.00949 µM) | IC50 (second compound 0.03 µM) | IC50 (second compound 0.0949 µM) | IC50 (second compound 0.3 µM)
inactive: viability, T/C [1] 106% | viability, T/C [2] 93.9% | viability, T/C [3] 94.2% | viability, T/C [4] 72.2% | viability, T/C [5] 70.4% | viability, T/C [6] 65.8% | viability, T/C [7] 90.8% | viability, T/C [8] 93% | viability, T/C [9] 93.7% | viability, T/C [10] 86.2% | viability, T/C [11] 98.9% | viability, T/C [12] 56.8% | viability, T/C [13] 94.4% | viability, T/C [14] 101% | viability, T/C [15] 84.9% | viability, T/C [16] 96% | viability, T/C [17] 85.9% | viability, T/C [18] 55.7% | viability, T/C [19] 96.6% | viability, T/C [20] 91% | viability, T/C [21] 99% | viability, T/C [22] 82.5% | viability, T/C [23] 95.5% | viability, T/C [24] 65% | viability, T/C [25] 103% | viability, T/C [26] 94.1% | viability, T/C [27] 78.6% | viability, T/C [28] 93.7% | viability, T/C [29] 77.9% | viability, T/C [30] 62.1% | viability, T/C [31] 100% | viability, T/C [32] 101% | viability, T/C [33] 86.6% | viability, T/C [34] 83.7% | viability, T/C [35] 84% | viability, T/C [36] 71.8%

O=C(c1ccc(F)c(F)c1Nc1ccc(I)cc1F)N1CC(O)([C@@H]2CCCCN2)C1 + CCn1c(-c2cccnc2C(C)OC)c2c3cc(ccc31)N1CCOC(CC(NC(=O)C(C(C)C)N(C)C(=O)C3(F)CCN(C(=O)C#CC(C)(C)N(C)C)CC3)C(=O)N3CCCC(N3)C(=O)OCC(C)(C)C2)C1
65.5 nM: IC50 (second compound 0.0949 µM)
59.5 nM: IC50 (second compound 0.00949 µM)
inactive: viability, T/C [37] 101% | viability, T/C [38] 78.4% | viability, T/C [1] 64.1% | viability, T/C [2] 37.7% | viability, T/C [3] 26.4% | viability, T/C [4] 11.7% | viability, T/C [39] 97.3% | viability, T/C [40] 88.4% | viability, T/C [7] 60.1% | viability, T/C [8] 40.7% | viability, T/C [9] 31.5% | viability, T/C [10] 13.9% | viability, T/C [41] 87% | viability, T/C [42] 73.6% | viability, T/C [13] 60.9% | viability, T/C [14] 39.4% | viability, T/C [15] 30.1% | viability, T/C [16] 14% | viability, T/C [43] 89.6% | viability, T/C [44] 76.8% | viability, T/C [19] 62.5% | viability, T/C [20] 36.8% | viability, T/C [21] 24% | viability, T/C [22] 15% | viability, T/C [45] 88.3% | viability, T/C [46] 75.3% | viability, T/C [25] 64% | viability, T/C [26] 39.8% | viability, T/C [27] 28.5% | viability, T/C [28] 10% | viability, T/C [47] 91.4% | viability, T/C [48] 74.7% | viability, T/C [31] 51.1% | viability, T/C [32] 36.3% | viability, T/C [33] 23.5%
54.5 nM: IC50 (second compound 0.03 µM)
58.6 nM: IC50 (second compound 0.000949 µM)
66.5 nM: IC50 (second compound 0.003 µM)
active: viability, T/C [34] 8.18%
40.4 nM: IC50 (second compound 0.3 µM)
